Test results taken from PubChem BioAssay (NCI).
“And” between values parts separate entries of the source, which are not always exact repeats. Equal entries are not always repeated.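 Step 1: Grow cells in 96-well plates. Step 2: Expose to compound for 48 hours at 5 concentrations. Step 3: Interpolate endpoints linearly; if unreached, use highest concentration. Here, GI50 denotes the concentration required for 50% inhibition of growth. Definition used: TGI = concentration required for complete inhibition of growth.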

How the values were obtained:
Experiment in all cases: inhibition of tumour cell growth, NCI panel, 48 h
HOP-92 NSCLC = tested on: HOP-92 NSCLC
MOLT-4 leukemia = tested on: MOLT-4 leukemia
LOX IMVI melanoma = tested on: LOX IMVI melanoma
OVCAR-3 ovarian = tested on: OVCAR-3 ovarian
SW-620 colon = tested on: SW-620 colon
RPMI-8226 leukemia = tested on: RPMI-8226 leukemia
HOP-62 NSCLC = tested on: HOP-62 NSCLC
UO-31 renal = tested on: UO-31 renal
IGROV1 ovarian = tested on: IGROV1 ovarian
PC-3 prostate = tested on: PC-3 prostate

Row | SMILES | GI50 (HOP-92 NSCLC) | TGI (HOP-92 NSCLC) | GI50 (MOLT-4 leukemia) | TGI (MOLT-4 leukemia) | GI50 (LOX IMVI melanoma) | TGI (LOX IMVI melanoma) | GI50 (OVCAR-3 ovarian) | TGI (OVCAR-3 ovarian) | GI50 (SW-620 colon) | TGI (SW-620 colon) | GI50 (RPMI-8226 leukemia) | TGI (RPMI-8226 leukemia) | GI50 (HOP-62 NSCLC) | TGI (HOP-62 NSCLC) | GI50 (UO-31 renal) | TGI (UO-31 renal) | GI50 (IGROV1 ovarian) | TGI (IGROV1 ovarian) | GI50 (PC-3 prostate) | TGI (PC-3 prostate)
1 | Cn1cc(-c2csc(-c3cn(C)c4ncccc34)n2)c2ccccc21 | 0.346 µM | 14.1 µM | 0.613 µM | > 52.2 µM | 0.652 µM | > 100 µM | 0.143 µM | 1.3 µM | 0.26 µM | > 100 µM | 0.396 µM | 25.3 µM | 0.622 µM | 19.3 µM | 0.71 µM | > 66.4 µM | 1.28 µM | 33.6 µM | 0.397 µM | > 100 µM
2 | c1ccc(CNc2nc(Nc3ccc(-c4nc5ccccc5[nH]4)cc3)c3cn[nH]c3n2)cc1 | 1.99 µM | 5.56 µM | 2.43 µM | 6.33 µM | 1.69 µM | 3.36 µM | 1.61 µM | 3.3 µM | 2.69 µM | 6.62 µM | 2.15 µM | 5.51 µM | 2.17 µM | 5.48 µM | 2.02 µM | 6.02 µM | 2.49 µM | 6.99 µM | 1.78 µM | 6.36 µM
3 | OCCC#Cc1ccccc1C#Cc1ccccc1 | 3.48 µM | 16.7 µM | 9.84 µM | 51.9 µM | – | – | – | – | 13.4 µM | 28.2 µM | 12.4 µM | 41.8 µM | 18.7 µM | 33.9 µM | 34.3 µM | > 100 µM | 33.4 µM | > 100 µM | 13.7 µM | 35.5 µM
4 | S=c1nc(/C=C/c2ccc(Cl)c(Cl)c2)[nH][nH]1 | 0.802 µM | 64.6 µM | – | > 100 µM | – | > 100 µM | – | > 100 µM | – | > 100 µM | 51.4 µM | > 100 µM | – | > 100 µM | – | > 100 µM | – | > 100 µM | 53.4 µM | > 100 µM
5 | Cc1ccc2c(c1)/C(=N\N=C/c1cn(C(C)C)c3ccccc13)C(=O)N2 | 1.73 µM | 67.2 µM | 0.252 µM | 0.753 µM | 2.55 µM | 25.2 µM | 0.311 µM | 31.9 µM | 0.937 µM | > 100 µM | 0.396 µM | 7.31 µM | 28.4 µM | > 100 µM | 1.98 µM | > 100 µM | 1.37 µM | > 100 µM | 0.723 µM | 45.3 µM
6 | COC12c3ccccc3-c3ccccc3C1[C@@H](C(=O)O)[C@H]2C(=O)O (stereo partly specified) | – | > 10 µM | – | > 10 µM | – | > 10 µM | – | > 10 µM | – | > 10 µM | – | > 10 µM | – | > 10 µM | – | > 10 µM | – | > 10 µM | – | > 10 µM
7 | CC[C@]12C=CCN3CC[C@]4(C(=C(C(=O)OC)C1)Nc1ccccc14)[C@@H]32 | 2.28 µM | 9.27 µM | 3.16 µM | 14.7 µM | 1.94 µM | 4.13 µM | 2.45 µM | 7.51 µM | 3.18 µM | 12.3 µM | 3.17 µM | 17.8 µM | 9.78 µM | 28.4 µM | 4.11 µM | 16.5 µM | 5.8 µM | 20.6 µM | 5.36 µM | 22.8 µM
8 | O=[N+]([O-])c1ccc([I+]c2ccccc2)cc1 | – | 23.5 µM and 25.1 µM | 3.17 µM | > 26.2 µM and 75.3 µM | 0.583 µM | 1.99 µM | 1.8 µM | 12.2 µM and 3.39 µM | 1.85 µM | 12.2 µM and 4.31 µM | 4.64 µM | 47.2 µM and 54.2 µM | 1.56 µM | 25.6 µM and 3.3 µM | – | 11.9 µM | – | 35.3 µM | 2.16 µM | 11 µM and 5.21 µM
9 | COc1cc(-c2cn(-c3ccc(Cl)cc3)c(=O)n2-c2ccccc2)cc(OC)c1OC | 24.1 µM | > 88.5 µM | 59.6 µM | > 100 µM | 46.2 µM | > 100 µM | > 100 µM | > 100 µM | > 100 µM | > 100 µM | > 35.4 µM | > 100 µM | > 85.3 µM | > 100 µM | 89.3 µM | > 100 µM | 30.6 µM | > 69.2 µM | 69.9 µM | > 100 µM
10 | COc1cc2c(cc1OCCCN1CCN(CCCOc3cc4c(cc3OC)C(=O)C3CCC[C@H]3C=N4)CC1)N=C[C@@H]1CCCC1C2=O (stereo partly specified) | 0.597 µM | > 61.4 µM | 0.313 µM | 2.53 µM | 3.65 µM | > 60.7 µM | 8.17 µM | 60.6 µM | 1.19 µM | > 35 µM | 0.24 µM | 3.81 µM | 4.78 µM | > 100 µM | 17.1 µM | > 51.3 µM | 3.27 µM | > 23.6 µM | 2.99 µM | > 77.1 µM
11 | Nc1nccc(C#Cc2cncnc2Nc2ccc(OCc3cccc(F)c3)c(Cl)c2)n1 | 3.73 µM | 8.95 µM | 5.69 µM | 21.5 µM | 1.72 µM | 6.01 µM | 3.83 µM | 7.18 µM | 3 µM | 7.66 µM | 5.62 µM | 16.9 µM | 4.93 µM | 9.17 µM | 4.34 µM | 10.1 µM | 5.1 µM | 20 µM | 4.5 µM | 9.63 µM
12 | CCN1C(=O)N(CC)C2C1NN=c1s/c(=C\c3ccc([N+](=O)[O-])cc3)c(=O)n12 (stereo unspecified) | 2.19 µM | > 100 µM | 0.577 µM | > 100 µM | 0.507 µM | > 100 µM | 0.283 µM | 0.842 µM | 0.379 µM | > 100 µM | 0.449 µM | > 38.9 µM | 0.731 µM | > 59.8 µM | 0.903 µM | > 100 µM | 0.977 µM | > 32.9 µM | 0.387 µM | > 75.9 µM
13 | O=C1/C(=C\c2ccccc2)CN(C(=O)c2ccccc2F)C/C1=C\c1ccccc1 | 3.18 µM | 14.2 µM | 2.93 µM | 8.51 µM | 0.746 µM | 2.17 µM | 2.36 µM | 5.35 µM | 1.52 µM | 3.48 µM | 0.125 µM | 0.72 µM | 2.53 µM | 6.57 µM | 1.53 µM | 3.24 µM | 2.08 µM | 4.46 µM | 2.34 µM | 7.22 µM
